We go through 2 molecules from US11998481B2, “Methods and compositions for iontophoretic drug delivery to the eye” (University of Florida Research Foundation, Inc., priority 2018, dated 2024).

Holding throughout (format): in vitro ADME, rabbit
A short description of data set [1]: Ex vivo iontophoretic delivery of fluorescein to the posterior eye segment, quantified in the vitreous by fluorometer. The note with it: for Flux (time averaged): calculated from final concentration in the vitreous; for Concentration in Vitreous: lens loaded with 0.01 mg/mL fluorescein in HEPES; for electrophoretic velocity from the data of Table 3: order of magnitude. An excerpt: (§1) Materials: Mature cadaver rabbit eyes were purchased from Pel-Freez Biologicals (Rogers, AR). The Nile Blue A dye (75% dye content) and Fluorescein were purchased from Sigma-Aldrich (St. Louis, MO). Electrode materials were made 3D printed with conductive PLA filament (Proto Pasta, Vancouver, WA). Cadaver rabbit eyes were fixed in Margo solution containing paraformaldehyde and glutaraldehyde purchased from Fisher Scientific (Hampton, NH). Soaking agents for lenses included phosphate buffered saline (PBS) or a HEPES solution purchased from Fisher Scientific (Hampton, NH). Commercial contact lenses Acuvue Oasys (14 mm diameter, 8.4 mm base curve, 0.0 power) were used in the study.
(§2) Lens Preparation: Contact lenses were loaded by soaking in a 1 mg/mL Nile Blue solution in PBS or in a 0.01 mg/mL fluorescein solution in HEPES overnight. Lenses were loaded overnight in an enclosed space to prevent photobleaching of any species. […] Both species have low molecular weights and therefore have rapid uptakes into the lenses.
(§3) Application of Electric Field: Loaded contact lenses were placed at the periphery of the cornea, on the sclera, and the two electrodes were placed over the lenses. Electrodes were attached to a power source that was set to the desired current (FIG. 8). A syringe pump was configured to gently apply a drop of PBS (≈30 μL) every 30 seconds on to the cornea and would flow to the lenses, providing a thin film to keep them hydrated. The application of PBS also served as an approximate mimic of the in vivo tear film. The submersion of the lens was also crucial to ensure that if any bubbling from electrochemically generated gases were to occur, it would be easily visible. The field was applied for the desired duration and then the power source and lenses were removed. Experiments were conducted with the lenses soaked in PBS for the anode component and HEPES for the cathode. The Nile Blue and fluorescein experiments were each conducted with three different combinations of time and current.
Quantification of Fluorescein Delivery: Delivery of fluorescein to the posterior eye segment was conducted four times for each variation of time and current. After completion, eyes were submerged in PBS for 1 hour and then refrozen. Once the eyes had completely solidified, the vitreous was removed by cutting away the rest of the eye. All samples of same time and current were combined and thawed. After thawing was complete, the vitreous was put through a 0.22 μm filter to ensure no excessive tissue was present in the system. Relative fluorescent intensity of each sample was found using a Quantech fluorometer and the corresponding concentrations of fluorescein was found through a calibration curve.
Efficient transport of fluorescein to the vitreous: The fluorescein was loaded into lenses in a HEPES solution, which alleviated the damage done to the eye during the generation of caustic species from the electrochemical reactions. In order to quantify the delivery of fluorescein to the posterior eye segment, experiments were conducted at three different combinations or time and current and were compared to a control. The electric fields chosen were 0.25 mA (high current) and 0.125 mA (low current) for either 1 hour (short time) or 2 hours (long time). After the application of the electric field to the sclera, the vitreous was harvested and fluorescence was quantified using a fluorometer. The concentrations of fluorescein were found using a calibration curve for the relative fluorescence (Table 3). Additionally in FIGS. 11A-11B, the delivery and localization of fluorescein can be seen in the posterior eye segment. Fluorescence was produced using a UV light source and observed thorough an orange filter. The regions near the cathode component show localizations of fluorescein at the exterior and interior surfaces. The final concentration in the vitreous was also used to calculate the time averaged flux of the fluorescein and the electrophoretic mobility. […]

A short description of data set [2]: Ex vivo iontophoretic delivery of Nile Blue A dye through the cornea from a drug loaded contact lens (camera and confocal imaging). The text has this: Materials: Mature cadaver rabbit eyes were purchased from Pel-Freez Biologicals (Rogers, AR). The Nile Blue A dye was purchased from Sigma-Aldrich (St. Louis, MO) with a 75% dye content. Electrode materials were either made from generic lead-free, silver bearing solder or was 3D printed with conductive PLA filament (Proto Pasta, Vancouver, WA). Cadaver rabbit eyes were fixed in Margo solution containing paraformaldehyde and glutaraldehyde purchased from Fisher Scientific (Hampton, NH). Soaking agents for lenses included phosphate buffered saline (PBS), 1 M HEPES, a HEPES buffer solution containing sodium chloride, calcium chloride, magnesium chloride, and potassium phosphate were all purchased from Fisher Scientific (Hampton, NH). Commercial contact lenses Acuvue Oasys (14 mm diameter, 8.4 mm base curve, 0.0 power) were used in the study.
Lens Preparation: Contact lenses were loaded by soaking in a Nile Blue A dye solution (1 mg/mL) in DI water for two days. To investigate the effect of buffer, lenses were soaked in either pure HEPES or HEPES buffer for 10 minutes prior to placement on the cadaver eyes. The molecular weight of HEPES is 238 allowing rapid uptake by the contact lenses. […]
In order to quantify drug delivery, diffusion efficacy was measured by simultaneous comparison of four separate eyes, each corresponding to a different condition. […]

A short description of data set [3]: Ex vivo iontophoretic delivery of Nile Blue to the posterior eye segment (confocal microscopy).
Excerpt: as §1, §2
as §3, with “current. […]” for “current.”

Each structure is given as a SMILES string.

Turning to `O=C1OC2(c3ccc(O)cc3Oc3cc(O)ccc32)c2ccccc21` [Fluorescein], the “Flux (time averaged)” value in data set [1] (1 hr 0.125 mA) is 7.18 kg/m^2s [×10^7]; in data set [1] (1 hr 0.250 mA), 14.93 kg/m^2s [×10^7]; in data set [1] (2 hr 0.125 mA), 6.46 kg/m^2s [×10^7]. The entries for the “Concentration in Vitreous” value in data set [1] (1 hr 0.125 mA), in data set [1] (1 hr 0.250 mA) and in data set [1] (2 hr 0.125 mA) were 33.8 ng/mL, 70.4 ng/mL and 60.9 ng/mL, respectively. Besides, the results for the “electrophoretic velocity from the data of Table 3” value in data set [1] (high current (0.25 mA) experiments) and in data set [1] (low current (0.125 mA) experiments) were around 2.6 μm/s and around 1.3 μm/s, respectively.
Take `CC[N+](CC)=c1ccc2nc3c(cc(N)c4ccccc43)oc-2c1` [Nile Blue A dye]: in data set [2] (diffusion only, no electric field, from contact lens or standing solution, after 1 hr), the “Nile Blue A dye present throughout the cornea (confocal)” value is on record as “very minor amounts”. The “Nile Blue A dye delivered to the cornea (ROI analysis)” value in data set [2] (lenses loaded in DI water, all current and time conditions (0.25 or 0.125 mA, 30 or 60 min)) is on record as “significant quantities”. Moreover, the “distribution of Nile Blue A dye across sclera, choroid, and retina” value in data set [3] (all applied currents and times) was “uniform”. Also, the “damage to the posterior eye segment (confocal imaging)” value in data set [3] (hybrid lenses: PBS at anode, HEPES at cathode) is on record as “no apparent damage”. For the same molecule, the “transport of Nile Blue A dye across sclera, choroid, and retina (confocal)” value in data set [3] (low current and short time duration) is listed as “sufficient transport”.
